# Target: T1, Human FXRα Ligand Binding Domain (FXRα LBD) (Homo sapiens, UniProt Q96RI1)
# T1 construct: polyhistidine (N); made in house; host or cells: E. coli BL21 (DE3), pRSET-A vector
# T1 sequence (Q96RI1 222-472 isoform Q96RI1-2): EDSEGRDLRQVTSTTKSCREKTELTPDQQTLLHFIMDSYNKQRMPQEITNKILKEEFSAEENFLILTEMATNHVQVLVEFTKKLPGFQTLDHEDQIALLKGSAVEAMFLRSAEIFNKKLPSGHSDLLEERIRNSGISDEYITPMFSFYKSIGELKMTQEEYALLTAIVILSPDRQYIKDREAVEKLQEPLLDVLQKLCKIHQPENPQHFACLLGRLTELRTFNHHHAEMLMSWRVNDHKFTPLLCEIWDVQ
# Assay: FXR Affinity Binding Assay: ligand mediated cofactor peptide (SRC-1 LCD2, 676-700) interaction, time resolved fluorescence
# Details: FXRα LBD-APC / europium labeled SRC-1 peptide, TRF signal, at least 2 hours at room temperature; read-out: Activity (pEC50) (converted)
# Experimental: Determination of a ligand mediated cofactor peptide interaction to quantify ligand binding to the nuclear receptor Farnasoid X Receptor (FXR). The method measures the ability of putative ligands to modulate the interaction between the purified bacterial expressed FXRα (LBD) and a synthetic biotinylated peptide based on residues 676-700 of SRC-1(LCD2, 676-700). […] Detection of the associated complex is measured by time resolved fluorescence (TRF). The purified LBD of FXR is labeled with biotin then mixed with stoichiometric amounts of APC labeled streptavidin (Molecular Probes). The biotinylated peptide is then mixed with a ½ stoichiometric amount of europium labeled streptavidin (Wallac Inc). Each is then blocked with a 5 fold excess of biotin and allowed to equilibrate for 15 min. Equimolar amounts of receptor and peptide are mixed together and allowed to equilibrate for at least 30 min prior to the addition to either a variable or constant concentrations of the sample for which the affinity is to be determined. After equilibration, the time-resolved fluorescent signal is quantitated using a fluorescent plate reader. The affinity of the test compound is estimated from a plot of fluorescence versus concentration of test compound added.
# Ligands that promote the complex formation induce a concentration-dependent increase in time-resolved fluorescent signal.
# Human FXRα Ligand Binding Domain (FXRα LBD) was expressed in E.coli strain BL21 (DE3) as an amino-terminal polyhistidine tagged fusion protein. Expression was under the control of an IPTG inducible T7 promoter. DNA encoding this recombinant protein was subcloned into the pRSET-A expression vector (Invitrogen). The coding sequence of Human FXRα LBD was derived from Genbank accession number U 68233 (amino acids 222 to 472).
# Routinely, 30-40 g cell paste (equivalent to 2-3 liters of the fermentation batch) was resuspended in 200-250 mL TBS, pH 7.2 (25mM Tris, 150 mM NaCl). Cells were lysed by passing 3 times through a French Press and cell debris was removed by centrifugation (30 minutes, 20,000 g, 4° C.). The cleared supernatant was filtered through course pre-filters, and TBS, pH 7.2, containing 500 mM imidazole was added to obtain a final imidazole concentration of 50 mM. This lysate was loaded onto a column (6×8 cm) packed with Sepharose [Ni^++ charged]Chelation resin (Pharmacia) and pre-equilibrated with TBS pH 7.21 50 mM imidazole. After washing to baseline absorbance with equilibration buffer, the column was washed with one column volume of TBS pH 7.2 containing 90 mM imidazole. FXRαLBD was eluted directly with 365 mM imidazole. Column fractions were pooled and dialyzed against TBS, pH 7.2, containing 0.5 mM EDTA and 5 mM DTT. The dialyzed protein sample was concentrated using Centri-prep 10 K (Amicon) and subjected to size exclusion, using a column (3×90 cm) packed with Sepharose S-75 resin (Pharmacia) pre-equilibrated with TBS, pH 7.2, containing 0.5 mM EDTA and 5 mM DTT.
# Purified FXRα LBD was desalted/buffer exchanged using PD-10 gel filtration columns into PBS [100 mM NaPhosphate, pH 7.2, 150 mM NaCl]. FXRα LBD was diluted to approximately 10 μM in PBS and five-fold molar excess of NHS-LC-Biotin (Pierce) was added in a minimal volume of PBS. This solution was incubated with gentle mixing for 30 minutes at room temperature. The biotinylation modification reaction was stopped by the addition of 2000× molar excess of Tris-HCl, pH 8. The modified FXRα LBD was dialyzed against 4 buffer changes, each of at least 50 volumes, PBS containing 5 mM DTT, 2 mM EDTA and 2% sucrose.
row,SMILES,EC50
1,"COC(=O)c1cccc(OCc2ccc(OCc3c(-c4ccccc4OC(F)(F)F)noc3C(C)C)cc2Cl)c1 [Example 83, Methyl 3-{[2-chloro-4-({5-isopropyl-3-[2-(trifluoromethoxy)-phenyl]isoxazol-4-yl}methoxy)benzyl]oxy}benzoate]",102 to 1000 nM
2,"CCc1onc(Cc2c(Cl)cccc2Cl)c1COc1ccc(N(C)Cc2cccc(C(=O)O)c2)c(C)c1 [Example 13, 3-[(4-{[3-(2,6-Dichlorobenzyl)-5-ethyl-4-isoxazolyl]methoxy}-2-dimethylanilino)methyl]benzoic acid]",102 to 1000 nM
3,CCN(c1ccc(OCc2c(-c3c(Cl)cccc3Cl)noc2C(C)C)cc1Cl)S(=O)(=O)c1cccc(C(=O)O)c1 [Example 50],< 100 nM
4,"Cc1cc(OCc2c(-c3c(Cl)cc(Cl)cc3Cl)noc2C(C)C)ccc1N(C)Cc1cccc(C(=O)O)c1 [Example 14, 3-{[(4-{[5-Isopropyl-3-(2,4,6-trichlorophenyl)isoxazol-4-yl]methoxy}-2-methylphenyl)-(methyl)amino]methyl}benzoic acid]",102 to 1000 nM
5,"COC(=O)c1ccc(CN(C)c2ccc(OCc3c(-c4ccccc4OC(F)(F)F)noc3C(C)C)cc2C)o1 [Example 21, Methyl 5-{[4-({5-isopropyl-3-[2-(trifluoromethoxy)phenyl]-4-isoxazolyl}methoxy)-2-dimethylanilino]methyl}-2-furoate]",< 100 nM
6,"Cc1cc(OCc2c(-c3ccccc3OC(F)(F)F)noc2C(C)C)ccc1N(C)Cc1cccc(C(=O)O)c1 [Example 20, 3-{[4-({5-Isopropyl-3-[2-(trifluoromethoxy)phenyl]-4-isoxazolyl}methoxy)-2-dimethylanilino]methyl}benzoic acid]",< 100 nM
7,"Cc1cc(OCc2c(-c3c(Cl)cccc3Cl)noc2C(C)C)ccc1CSc1cccc(C(=O)O)c1 [Example 80, 3-[(4-{[3-(2,6-Dichlorophenyl)-5-isopropylisoxazol-4-yl]methoxy}-2-methylbenzyl)thio]-benzoic acid]",< 100 nM
8,"COC(=O)c1cccc(SCc2ccc(OCc3c(-c4ccccc4OC(F)(F)F)noc3C(C)C)cc2C)c1 [Example 89, Methyl 3-{[4-({5-isopropyl-3-[2-(trifluoromethoxy)phenyl]isoxazol-4-yl}methoxy)-2-methylbenzyl]thio}benzoate]",102 to 1000 nM
9,"COC(=O)c1cccc(OCc2ccc(OCc3c(-c4ccccc4OC(F)(F)F)noc3C(C)C)cc2C)c1 [Example 84, Methyl 3-{[4-({5-isopropyl-3-[2-(trifluoromethoxy)phenyl]isoxazol-4-yl}methoxy)-2-methylbenzyl]oxy}benzoate]",1020 to 10000 nM
10,"Cc1cc(OCc2c(-c3c(Cl)cccc3Cl)noc2C(C)C)ccc1N(C)Cc1ccc(CO)cc1 [Example 12, {4-[(4-{[3-(2,6-Dichlorophenyl)-5-isopropyl-4-isoxazolyl]methoxy}-2-dimethylanilino)methyl]phenyl}methanol]",< 100 nM
11,"Cc1cc(OCc2c(-c3c(Cl)cccc3Cl)noc2C(C)C)ccc1COc1cccc(C(=O)O)c1 [Example 79, 3-[(4-{[3-(2,6-Dichlorophenyl)-5-isopropylisoxazol-4-yl]methoxy}-2-methylbenzyl)oxy]-benzoic acid]",< 100 nM
12,"COC(=O)c1cccc(S(=O)(=O)N(C)c2ccc(OCc3c(-c4ccccc4OC(F)(F)F)noc3C(C)C)cc2Cl)c1 [Example 70, Methyl 3-{[[2-chloro-4-({5-isopropyl-3-[2-(trifluoromethoxy)phenyl]-isoxazol-4-yl}methoxy)phenyl](methyl)amino]sulfonyl}benzoate]",102 to 1000 nM
13,"COC(=O)c1cccc(S(=O)(=O)N(C)c2ccc(OCc3c(-c4ccccc4OC(F)(F)F)noc3C(C)C)cc2C)c1 [Example 71, Methyl 3-{[[4-({5-isopropyl-3-[2-(trifluoromethoxy)phenyl]isoxazol-4-yl}methoxy)-2-methylphenyl](methyl)amino]sulfonyl}benzoate]",102 to 1000 nM
14,"Cc1cc(OCc2c(-c3ccccc3OC(F)(F)F)noc2C(C)C)ccc1N(C)Cc1ccc(C(=O)O)cc1 [Example 19, 4-{[4-({5-Isopropyl-3-[2-(trifluoromethoxy)phenyl]-4-isoxazolyl}methoxy)-2-dimethylanilino]methyl}benzoic acid]",< 100 nM

# More lines, now with the values ahead:
row,EC50,SMILES
1,1020 to 10000 nM,"COC(=O)c1ccc(S(=O)(=O)N(C)c2ccc(OCc3c(-c4c(Cl)cccc4Cl)noc3C(C)C)cc2)cc1 [Example 60, Methyl 4-{[(4-{[3-(2,6-dichlorophenyl)-5-isopropylisoxazol-4-yl]methoxy}phenyl)-(methyl)amino]sulfonyl}benzoate]"
2,102 to 1000 nM,"COC(=O)c1cccc(N(C)Cc2ccc(OCc3c(-c4c(Cl)cccc4Cl)noc3C(C)C)cc2Cl)c1 [Example 92, Methyl 3-[(2-chloro-4-{[3-(2,6-dichlorophenyl)-5-isopropylisoxazol-4-yl]methoxy}benzyl)(methyl)amino]benzoate]"
3,102 to 1000 nM,"COC(=O)c1ccc(S(=O)(=O)N(C)c2ccc(OCc3c(-c4c(Cl)cccc4Cl)noc3C(C)C)cc2C)cc1 [Example 59, Methyl 4-{[(4-{[3-(2,6-dichlorophenyl)-5-isopropylisoxazol-4-yl]methoxy}-2-methyl-phenyl)(methyl)amino]sulfonyl}benzoate]"
4,102 to 1000 nM,"Cc1cc(OCc2c(-c3c(Cl)cccc3Cl)noc2C(C)C)ccc1NC(=O)c1ccc(C(=O)O)cc1 [Example 27, 4-[(4-{[3-(2,6-Dichlorophenyl)-5-isopropyl-4-isoxazolyl]methoxy}-2-methylanilino)carbonyl]benzoic acid]"
5,1020 to 10000 nM,"CCN(c1ccc(OCc2c(-c3c(Cl)cccc3Cl)noc2C(C)C)cc1Cl)S(=O)(=O)c1cccc(C(=O)OC)c1 [Example 43, Methyl 3-{[(2-chloro-4-{[3-(2,6-dichlorophenyl)-5-isopropylisoxazol-4-yl]methoxy}-phenyl)(ethyl)amino]sulfonyl}benzoate]"
6,< 100 nM,"COC(=O)c1ccc(S(=O)(=O)Nc2ccc(OCc3c(-c4c(Cl)cccc4Cl)noc3C(C)C)cc2C)cc1 [Example 54, Methyl 4-{[(4-{[3-(2,6-dichlorophenyl)-5-isopropylisoxazol-4-yl]methoxy}-2-methyl-phenyl)amino]sulfonyl}benzoate]"
7,102 to 1000 nM,"COC(=O)c1cccc(S(=O)(=O)N(C)c2ccc(OCc3c(-c4c(Cl)cccc4Cl)noc3C(C)C)cc2)c1 [Example 42, Methyl 3-{[(4-{[3-(2,6-dichlorophenyl)-5-isopropylisoxazol-4-yl]methoxy}phenyl)-(methyl)amino]sulfonyl}benzoate]"
8,1020 to 10000 nM,"CC(C)c1onc(-c2c(Cl)cccc2Cl)c1COc1ccc(NS(=O)(=O)c2cccc(C(=O)O)c2)cc1 [Example 40, 3-{[(4-{[3-(2,6-Dichlorophenyl)-5-isopropylisoxazol-4-yl]methoxy}phenyl)amino]-sulfonyl}benzoic acid]"
9,102 to 1000 nM,"CCN(c1ccc(OCc2c(-c3c(Cl)cccc3Cl)noc2C(C)C)cc1C)S(=O)(=O)c1ccc(C(=O)O)cc1 [Example 66, 4-{[(4-{[3-(2,6-Dichlorophenyl)-5-isopropylisoxazol-4-yl]methoxy}-2-methylphenyl)-(ethyl)amino]sulfonyl}benzoic acid]"

# From patent US7319109B2, “Farnesoid X receptor agonists” (Smith Kline Beecham Corporation, priority 2002, dated 2008)
